One data set relates to HepG2 cells. Put plainly: cells. Particulars: Homo sapiens, HepG2, read-out: HepG2 EC50.
The test system of data set [1] is P. falciparum blood stage. Particulars: result in words.
The subject of the next data set is CRL-8155 cells. The experiment in a line: cells. Particulars: Homo sapiens, CRL8155, read-out: CRL8155 EC50.
A further data set addresses recombinant PfPKG (Plasmodium falciparum, UniProt Q8I719). Put plainly: biochemical.
In a further data set the target is PfCDPK1 (Plasmodium falciparum, UniProt P62344). Put plainly: biochemical.
Chain of PfCDPK1 (P62344 whole entry): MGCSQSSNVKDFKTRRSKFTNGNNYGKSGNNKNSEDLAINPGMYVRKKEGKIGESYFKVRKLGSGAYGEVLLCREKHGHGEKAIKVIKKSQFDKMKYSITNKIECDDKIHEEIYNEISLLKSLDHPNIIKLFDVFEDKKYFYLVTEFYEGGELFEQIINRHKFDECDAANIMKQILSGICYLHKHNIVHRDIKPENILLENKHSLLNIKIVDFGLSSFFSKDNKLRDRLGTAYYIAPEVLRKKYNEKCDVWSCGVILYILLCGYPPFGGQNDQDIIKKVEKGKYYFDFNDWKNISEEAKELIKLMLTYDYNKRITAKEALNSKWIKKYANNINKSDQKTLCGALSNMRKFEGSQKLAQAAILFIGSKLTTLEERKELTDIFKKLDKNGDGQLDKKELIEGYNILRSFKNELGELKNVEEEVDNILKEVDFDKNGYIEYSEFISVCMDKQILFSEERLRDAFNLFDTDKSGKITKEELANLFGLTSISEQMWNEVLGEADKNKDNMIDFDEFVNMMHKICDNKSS
The next data set concerns the target recombinant PfCDPK4 (Plasmodium falciparum, UniProt Q8IBS5). The experiment in a line: biochemical.
For data set [2] the following is noted: cited from earlier work.
The target of another data set is hERG (Homo sapiens, UniProt Q12809). The following applies: cited from earlier work.
Chain of hERG (Q12809 whole entry): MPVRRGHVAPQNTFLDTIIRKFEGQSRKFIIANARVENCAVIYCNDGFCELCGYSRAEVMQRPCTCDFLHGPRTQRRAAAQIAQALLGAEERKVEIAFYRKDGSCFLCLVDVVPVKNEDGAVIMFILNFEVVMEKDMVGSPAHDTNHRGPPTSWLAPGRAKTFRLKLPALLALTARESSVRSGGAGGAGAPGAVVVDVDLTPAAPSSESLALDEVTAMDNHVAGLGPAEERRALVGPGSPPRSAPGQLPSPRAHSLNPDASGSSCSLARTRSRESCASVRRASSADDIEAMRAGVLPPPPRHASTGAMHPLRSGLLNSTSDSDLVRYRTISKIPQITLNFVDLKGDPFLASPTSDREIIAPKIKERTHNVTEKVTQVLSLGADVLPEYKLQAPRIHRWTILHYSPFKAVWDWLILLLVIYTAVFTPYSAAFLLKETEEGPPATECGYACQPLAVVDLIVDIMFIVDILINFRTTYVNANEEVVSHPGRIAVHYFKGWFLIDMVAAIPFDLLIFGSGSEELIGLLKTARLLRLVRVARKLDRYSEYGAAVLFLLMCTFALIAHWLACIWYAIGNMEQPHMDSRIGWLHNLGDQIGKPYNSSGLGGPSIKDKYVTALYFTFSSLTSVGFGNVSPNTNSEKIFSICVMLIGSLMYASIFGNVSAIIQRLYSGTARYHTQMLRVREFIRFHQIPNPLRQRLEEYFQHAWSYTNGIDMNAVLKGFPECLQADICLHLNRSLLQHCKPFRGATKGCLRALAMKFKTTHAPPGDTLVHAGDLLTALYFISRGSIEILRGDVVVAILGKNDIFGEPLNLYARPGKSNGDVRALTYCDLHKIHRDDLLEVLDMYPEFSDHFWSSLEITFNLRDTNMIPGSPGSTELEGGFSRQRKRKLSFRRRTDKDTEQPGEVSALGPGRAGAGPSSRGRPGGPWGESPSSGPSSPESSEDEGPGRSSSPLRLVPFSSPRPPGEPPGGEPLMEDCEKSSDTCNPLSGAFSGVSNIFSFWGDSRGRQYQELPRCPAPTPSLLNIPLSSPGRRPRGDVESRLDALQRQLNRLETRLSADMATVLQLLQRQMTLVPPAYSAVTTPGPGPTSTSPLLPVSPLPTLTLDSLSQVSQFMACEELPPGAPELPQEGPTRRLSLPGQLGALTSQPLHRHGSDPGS

Chain of recombinant PfPKG (Q8I719 whole entry): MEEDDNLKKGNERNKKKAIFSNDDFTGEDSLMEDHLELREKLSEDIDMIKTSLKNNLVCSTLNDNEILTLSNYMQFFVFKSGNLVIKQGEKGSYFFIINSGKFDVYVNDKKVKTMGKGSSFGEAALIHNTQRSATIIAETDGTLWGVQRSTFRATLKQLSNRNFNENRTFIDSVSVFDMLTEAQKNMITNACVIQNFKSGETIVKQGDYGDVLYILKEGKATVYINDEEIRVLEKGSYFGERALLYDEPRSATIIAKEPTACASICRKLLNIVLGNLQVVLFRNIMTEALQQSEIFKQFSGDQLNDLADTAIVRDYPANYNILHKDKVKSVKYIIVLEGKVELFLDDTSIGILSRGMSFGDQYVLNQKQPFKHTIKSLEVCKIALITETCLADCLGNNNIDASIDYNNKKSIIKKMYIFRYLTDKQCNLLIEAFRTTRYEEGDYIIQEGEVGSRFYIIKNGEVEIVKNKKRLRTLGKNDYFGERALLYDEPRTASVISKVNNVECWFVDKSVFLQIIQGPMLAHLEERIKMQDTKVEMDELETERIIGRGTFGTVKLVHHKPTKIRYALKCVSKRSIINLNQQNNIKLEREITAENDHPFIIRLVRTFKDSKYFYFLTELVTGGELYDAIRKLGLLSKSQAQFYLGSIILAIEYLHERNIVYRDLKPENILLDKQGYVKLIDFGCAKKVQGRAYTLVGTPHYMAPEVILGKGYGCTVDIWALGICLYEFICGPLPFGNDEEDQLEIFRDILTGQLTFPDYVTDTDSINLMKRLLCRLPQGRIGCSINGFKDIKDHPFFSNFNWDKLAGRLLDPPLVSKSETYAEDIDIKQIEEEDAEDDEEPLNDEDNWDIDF
Chain of recombinant PfCDPK4 (Q8IBS5 whole entry): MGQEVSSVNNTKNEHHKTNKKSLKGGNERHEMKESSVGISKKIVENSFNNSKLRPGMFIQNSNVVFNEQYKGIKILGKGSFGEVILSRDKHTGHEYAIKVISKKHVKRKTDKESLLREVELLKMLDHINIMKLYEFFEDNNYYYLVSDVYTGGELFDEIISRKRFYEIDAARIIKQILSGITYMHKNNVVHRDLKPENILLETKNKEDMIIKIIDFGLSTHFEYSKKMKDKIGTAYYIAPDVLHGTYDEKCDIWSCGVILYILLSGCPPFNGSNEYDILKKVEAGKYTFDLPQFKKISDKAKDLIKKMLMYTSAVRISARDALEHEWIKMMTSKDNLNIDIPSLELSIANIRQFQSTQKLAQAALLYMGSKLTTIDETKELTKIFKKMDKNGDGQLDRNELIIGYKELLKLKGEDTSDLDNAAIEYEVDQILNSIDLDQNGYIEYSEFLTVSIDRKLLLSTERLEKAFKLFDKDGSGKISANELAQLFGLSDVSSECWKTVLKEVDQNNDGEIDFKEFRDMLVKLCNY

Turning to `CC(C)(C)n1nc(-c2ccc3cc(O)ccc3c2)c(C(N)=O)c1N` [Compound 2], the EC50 in the data set with HepG2 cells and in the data set on CRL-8155 cells was above 30 µM each time. In addition, the anti-erythrocytic stage inhibition entry in data set [1] is “some observable anti-erythrocytic stage inhibition”.

With `COc1ccc2cc(-c3nn(C(C)(C)C)c(N)c3C(N)=O)cnc2c1` [Compound 4], the EC50 in the data set with HepG2 cells and in the data set with CRL-8155 cells was above 30 µM each time.

In the case of `CCOc1ccc2cc(-c3nn(C(C)(C)C)c(N)c3C(N)=O)ccc2c1` [Compound 5], the figures for the IC50 at recombinant PfPKG and against PfCDPK1 were 2.37 µM and 0.287 µM, respectively.

As to `CCOc1ccc2cc(-c3nn(C(C)(C)C)c(N)c3C(N)=O)cnc2c1` [Compound 6], the EC50 (commonly the concentration at which the effect is half-maximal) with HepG2 cells is above 30 µM. The anti-erythrocytic stage inhibition result in data set [1] is on record as “some observable anti-erythrocytic stage inhibition”.

Take `CC(C)(C)n1nc(-c2cnc3cc(OC4CC4)ccc3c2)c(C(N)=O)c1N` [Compound 8]: on PfCDPK1, the IC50 (as a rule, the concentration that inhibits the measured activity by half) was 0.225 µM.

Take `CCOc1ccc2cc(-c3nn(C(C)C)c(N)c3C(N)=O)cnc2c1` [Compound 14]: the EC50 in the data set with HepG2 cells and in the data set with CRL-8155 cells was above 30 µM in each case.

Turning to `CCOc1ccc2cc(-c3nn(CC(C)(C)CO)c(N)c3C(N)=O)cnc2c1` [Compound 17], the EC50 in the data set on HepG2 cells and in the data set on CRL-8155 cells was above 30 µM throughout.

`CCOc1ccc2cc(-c3nn(C4CCOC4)c(N)c3C(N)=O)ccc2n1` (centres unmarked) [Compound 25]: the IC50 was determined as 0.103 µM on recombinant PfCDPK4 and 0.468 µM against PfCDPK1.

As for `CCOc1ccc2cc(-c3nn(C4CCCCC4)c(N)c3C(N)=O)ccc2n1` [Compound 26], the EC50 in the data set with HepG2 cells and in the data set with CRL-8155 cells was above 30 µM in each case. The anti-erythrocytic stage inhibition result in data set [1] is “some observable anti-erythrocytic stage inhibition”.

`CC(C)n1nc(-c2ccc3nc(OC4CCC4)ccc3c2)c(C(N)=O)c1N` [Compound 27]: inhibition at PfCDPK1 was half-maximal at 0.159 µM (IC50).

Take `CCOc1ccc2cc(-c3nn(CC4CCN(C)CC4)c4ncnc(N)c34)ccc2c1` [Compound 1294]: in data set [2] (initial mouse studies), the toxicity result is “low toxicity”. Moreover, the oral availability entry in data set [2] (mouse) is listed as “orally available”. For the same compound, on hERG, the hERG inhibitory activity entry is “hERG inhibitory activity at therapeutic concentrations”.

The values above are taken from article PMC5159281 (Bioorganic & medicinal chemistry letters, 2016).
